Where two headings read alike, the source gives them in different places.

This experiment has as its target T1, HRP Type VIA (Armoracia rusticana, UniProt P00433).
T1 sequence (P00433 31-338): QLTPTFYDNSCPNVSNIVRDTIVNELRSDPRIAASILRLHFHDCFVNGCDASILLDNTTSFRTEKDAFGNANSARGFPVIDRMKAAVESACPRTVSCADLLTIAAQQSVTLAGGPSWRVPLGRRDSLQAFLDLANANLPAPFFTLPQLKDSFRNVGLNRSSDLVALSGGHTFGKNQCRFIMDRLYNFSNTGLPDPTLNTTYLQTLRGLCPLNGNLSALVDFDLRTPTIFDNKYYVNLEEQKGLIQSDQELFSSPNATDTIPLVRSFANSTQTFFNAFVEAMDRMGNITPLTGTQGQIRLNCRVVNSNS
The following applies: for (d) Signal: Background: ratio (control = with no enhancer): control value in brackets not reported.

In the case of `CC(C)COB(c1ccccc1)c1ccccc1` [Compound 1019, diphenylisobutoxyborane], for the setting “0.01 mg/ml, 10µl test compound”, the “(a) Decrease in background (without HRP with test cpd.)” value is “Y”; the “(b) Increase in signal (with HRP, with test cpd.)” value (“(b) Increase in signal” for short) was “N”; the “(c) Increase in signal: background ratio” value was “Y (Column (c) shows whether there was an increase in the signal:background ratio by over 25% of the control value (Y = yes)”; the “(d) Signal: Background: ratio (control = with no enhancer)” value was 3.2 (2.0). For the setting “0.1 mg/ml, 10µl test compound”, the “(a) Decrease in background (without HRP with test cpd.)” value is “Y”; the “(b) Increase in signal” value is recorded as “N”; the “(c) Increase in signal: background ratio” value is “N (N = no)”; the “(d) Signal: Background: ratio (control = with no enhancer)” value was 3.0 (2.9). Besides, for the setting “1 mg/ml, 10µl test compound”, the “(a) Decrease in background (without HRP with test cpd.)” value is “Y”; the “(b) Increase in signal” value is on record as “N”; the “(c) Increase in signal: background ratio” value is “N (N = no)”.

In the case of `c1ccc([B-](c2ccccc2)(c2ccccc2)c2ccccc2)cc1` [Compound 1016, tetraphenylboron sodium], the “(a) Decrease in background (without HRP with test cpd.)” value is listed as “Y”; the “(b) Increase in signal” value is reported as “N”; the “(c) Increase in signal: background ratio” value is “N (key: column (a) shows whether the test compound lowered the light output from the luminol-hydrogen peroxide solution (Y = yes; N = no)”.

Turning to `BrCc1ccccc1OB(Oc1ccccc1CBr)c1ccccc1CBr` [Compound 1049, 2-boromethylphenyl-di-(2'-boromethylphenoxy)borane], for the setting “0.01 mg/ml, 10µl test compound”, the “(a) Decrease in background (without HRP with test cpd.)” value is given as “Y”; the “(b) Increase in signal” value was “N”; the “(c) Increase in signal: background ratio” value was “N (N = no)”. For the setting “0.1 mg/ml, 10µl test compound”, the “(a) Decrease in background (without HRP with test cpd.)” value is reported as “Y”; the “(b) Increase in signal” value is “N”; the “(c) Increase in signal: background ratio” value is “N (N = no)”; the “(d) Signal: Background: ratio (control = with no enhancer)” value is given as 3.2 (2.9). In addition, where the note is “1 mg/ml, 10µl test compound”, the “(a) Decrease in background (without HRP with test cpd.)” value is “Y”; the “(b) Increase in signal” value is recorded as “N”; the “(c) Increase in signal: background ratio” value is “N (N = no)”.

As for `Nc1c(Cl)cc(Cl)c(B(O)O)c1Cl` [Compound 1026, 3-amino-2,4,6-trichlorophenylboronic acid], for the setting “0.01 mg/ml, 10µl test compound”, the “(a) Decrease in background (without HRP with test cpd.)” value is on record as “Y”; the “(b) Increase in signal” value is reported as “N”; the “(c) Increase in signal: background ratio” value is on record as “N (N = no)”; the “(d) Signal: Background: ratio (control = with no enhancer)” value is listed as 2.1 (2.0). Further, under “0.1 mg/ml, 10µl test compound”, the “(a) Decrease in background (without HRP with test cpd.)” value is “Y”; the “(b) Increase in signal” value is given as “Y”; the “(c) Increase in signal: background ratio” value is on record as “Y (Column (c) shows whether there was an increase in the signal:background ratio by over 25% of the control value (Y = yes)”; the “(d) Signal: Background: ratio (control = with no enhancer)” value is 72.4 (2.8). Besides, under “1 mg/ml, 10µl test compound”, the “(a) Decrease in background (without HRP with test cpd.)” value is “Y”; the “(b) Increase in signal” value is given as “N”; the “(c) Increase in signal: background ratio” value is “Y (Column (c) shows whether there was an increase in the signal:background ratio by over 25% of the control value (Y = yes)”; the “(d) Signal: Background: ratio (control = with no enhancer)” value was 40.5 (4.5).

With “diphenylboronic anhydride [Compound 1048]”, under “0.01 mg/ml, 10µl test compound”, the “(a) Decrease in background (without HRP with test cpd.)” value is listed as “Y”; the “(b) Increase in signal” value is given as “Y”; the “(c) Increase in signal: background ratio” value is “Y (Column (c) shows whether there was an increase in the signal:background ratio by over 25% of the control value (Y = yes)”; the “(d) Signal: Background: ratio (control = with no enhancer)” value was 3.1 (1.8). For the same molecule, for the setting “0.1 mg/ml, 10µl test compound”, the “(a) Decrease in background (without HRP with test cpd.)” value was “Y”; the “(b) Increase in signal” value was “Y”; the “(c) Increase in signal: background ratio” value is given as “Y (Column (c) shows whether there was an increase in the signal:background ratio by over 25% of the control value (Y = yes)”; the “(d) Signal: Background: ratio (control = with no enhancer)” value was 139.0 (2.7). Further, for the setting “1 mg/ml, 10µl test compound”, the “(a) Decrease in background (without HRP with test cpd.)” value is on record as “Y”; the “(b) Increase in signal” value is recorded as “N”; the “(c) Increase in signal: background ratio” value is on record as “Y (Column (c) shows whether there was an increase in the signal:background ratio by over 25% of the control value (Y = yes)”; the “(d) Signal: Background: ratio (control = with no enhancer)” value is on record as 100.0 (4.5).

As to `OB(O)c1ccc(-c2ccc(B(O)O)cc2)cc1` [Compound 1037, 4,4'-bis(phenylboronic acid)], under “0.01 mg/ml, 10µl test compound”, the “(a) Decrease in background (without HRP with test cpd.)” value was “Y”; the “(b) Increase in signal” value is “Y”; the “(c) Increase in signal: background ratio” value is “Y (Column (c) shows whether there was an increase in the signal:background ratio by over 25% of the control value (Y = yes)”; the “(d) Signal: Background: ratio (control = with no enhancer)” value is listed as 35.5 (1.9). Further, for the setting “0.1 mg/ml, 10µl test compound”, the “(a) Decrease in background (without HRP with test cpd.)” value is given as “Y”; the “(b) Increase in signal” value is “Y”; the “(c) Increase in signal: background ratio” value is listed as “Y (Column (c) shows whether there was an increase in the signal:background ratio by over 25% of the control value (Y = yes)”; the “(d) Signal: Background: ratio (control = with no enhancer)” value is 503.3 (2.9). Under “1 mg/ml, 10µl test compound”, the “(a) Decrease in background (without HRP with test cpd.)” value is “Y”; the “(b) Increase in signal” value was “N”; the “(c) Increase in signal: background ratio” value was “N (N = no)”.

As for `OB(O)c1cc(Cl)cc(Cl)c1` [Compound 1025, 3,5-dichlorophenylboronic acid], where the note is “0.01 mg/ml, 10µl test compound”, the “(a) Decrease in background (without HRP with test cpd.)” value is on record as “Y”; the “(b) Increase in signal” value is given as “N”; the “(c) Increase in signal: background ratio” value is “N (N = no)”; the “(d) Signal: Background: ratio (control = with no enhancer)” value is on record as 2.1 (2.0). Moreover, where the note is “0.1 mg/ml, 10µl test compound”, the “(a) Decrease in background (without HRP with test cpd.)” value is “Y”; the “(b) Increase in signal” value is given as “N”; the “(c) Increase in signal: background ratio” value was “N (N = no)”. Besides, for the setting “1 mg/ml, 10µl test compound”, the “(a) Decrease in background (without HRP with test cpd.)” value was “Y”; the “(b) Increase in signal” value is “N”; the “(c) Increase in signal: background ratio” value is “N (N = no)”.

As for `C[Si](C)(C)c1ccc(B(O)O)cc1` [Compound 1001, 4-(trimethylsilyl) benzeneboronic acid], the “(a) Decrease in background (without HRP with test cpd.)” value was “Y”; the “(b) Increase in signal” value is “N and Y”; the “(c) Increase in signal: background ratio” value is “Y (key: Column (c) shows whether there was an increase in the signal:background ratio by over 25% of the control value (Y = yes; N = no)”.

As to `OB(O)c1cccc2c1oc1ccccc12` [Compound 1008, 4-dibenzofuranboronic acid], under “0.01 mg/ml, 10µl test compound”, the “(a) Decrease in background (without HRP with test cpd.)” value is “Y”; the “(b) Increase in signal” value is on record as “N”; the “(c) Increase in signal: background ratio” value is reported as “N (N = no)”; the “(d) Signal: Background: ratio (control = with no enhancer)” value is 1.6. In addition, where the note is “0.1 mg/ml, 10µl test compound”, the “(a) Decrease in background (without HRP with test cpd.)” value was “Y”; the “(b) Increase in signal” value is listed as “N”; the “(c) Increase in signal: background ratio” value is listed as “N (N = no)”; the “(d) Signal: Background: ratio (control = with no enhancer)” value is 1.5. Besides, for the setting “1 mg/ml, 10µl test compound”, the “(a) Decrease in background (without HRP with test cpd.)” value is recorded as “Y”; the “(b) Increase in signal” value is given as “N”; the “(c) Increase in signal: background ratio” value is listed as “N (N = no)”; the “(d) Signal: Background: ratio (control = with no enhancer)” value was 1.3 (2.5).

Take `OB(O)c1cccc2ccccc12` [Compound 1002, 1-naphthaleneboronic acid]: for the setting “0.01 mg/ml, 10µl test compound”, the “(a) Decrease in background (without HRP with test cpd.)” value is reported as “Y”; the “(b) Increase in signal” value is recorded as “N”; the “(c) Increase in signal: background ratio” value was “N (N = no)”; the “(d) Signal: Background: ratio (control = with no enhancer)” value is given as 2.5. Further, where the note is “0.1 mg/ml, 10µl test compound”, the “(a) Decrease in background (without HRP with test cpd.)” value is on record as “Y”; the “(b) Increase in signal” value is “N”; the “(c) Increase in signal: background ratio” value is “Y (Column (c) shows whether there was an increase in the signal:background ratio by over 25% of the control value (Y = yes)”; the “(d) Signal: Background: ratio (control = with no enhancer)” value was found to be 3.4. Where the note is “1 mg/ml, 10µl test compound”, the “(a) Decrease in background (without HRP with test cpd.)” value is recorded as “Y”; the “(b) Increase in signal” value is listed as “N”; the “(c) Increase in signal: background ratio” value is on record as “N (N = no)”; the “(d) Signal: Background: ratio (control = with no enhancer)” value is 0.7 (2.3).

In the case of `CCCCOB(OCCCC)c1ccc(Br)cc1` [Compound 1044, 4-bromophenyl-di-n-butoxyborane], under “0.01 mg/ml, 10µl test compound”, the “(a) Decrease in background (without HRP with test cpd.)” value is recorded as “Y”; the “(b) Increase in signal” value is listed as “Y”; the “(c) Increase in signal: background ratio” value is reported as “Y (Column (c) shows whether there was an increase in the signal:background ratio by over 25% of the control value (Y = yes)”; the “(d) Signal: Background: ratio (control = with no enhancer)” value was 38.5 (1.9). Moreover, where the note is “0.1 mg/ml, 10µl test compound”, the “(a) Decrease in background (without HRP with test cpd.)” value is recorded as “Y”; the “(b) Increase in signal” value is listed as “Y”; the “(c) Increase in signal: background ratio” value is reported as “Y (Column (c) shows whether there was an increase in the signal:background ratio by over 25% of the control value (Y = yes)”; the “(d) Signal: Background: ratio (control = with no enhancer)” value is 623.1 (2.7). Also, for the setting “1 mg/ml, 10µl test compound”, the “(a) Decrease in background (without HRP with test cpd.)” value is on record as “Y”; the “(b) Increase in signal” value is reported as “N”; the “(c) Increase in signal: background ratio” value is listed as “Y (Column (c) shows whether there was an increase in the signal:background ratio by over 25% of the control value (Y = yes)”; the “(d) Signal: Background: ratio (control = with no enhancer)” value was 147.1 (4.5).
